Columns and labels:
[1] = Drug-drug interaction in general
human PXR = target: T1, human PXR (Homo sapiens, UniProt O75469); test: Activation of human PXR; format: cell-based
T1 sequence (O75469 1-434): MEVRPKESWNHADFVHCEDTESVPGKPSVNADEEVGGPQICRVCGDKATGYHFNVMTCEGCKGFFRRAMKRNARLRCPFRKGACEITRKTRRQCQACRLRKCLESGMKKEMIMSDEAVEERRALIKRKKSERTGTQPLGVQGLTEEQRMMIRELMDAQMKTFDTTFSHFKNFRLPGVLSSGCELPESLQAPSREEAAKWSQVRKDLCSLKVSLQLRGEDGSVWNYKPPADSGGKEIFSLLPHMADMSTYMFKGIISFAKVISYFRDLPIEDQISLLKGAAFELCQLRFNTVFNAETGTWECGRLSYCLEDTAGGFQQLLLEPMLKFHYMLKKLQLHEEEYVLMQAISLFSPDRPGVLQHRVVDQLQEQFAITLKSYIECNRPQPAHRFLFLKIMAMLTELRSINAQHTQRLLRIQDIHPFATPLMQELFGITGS

CYP3A4 = CYP3A4 induction in human hepatocytes; format: in vitro ADME
[2] = Predicted plasma concentrations in PAH patients at 75 mg per day; format: in vivo, human; conditions: macitentan 75 mg per day; for predicted peak plasma concentration: PAH patients, based on PK Sub-study, assuming dose linearity; for expected free plasma concentration: taking into account protein binding
Method: Predicted peak plasma concentrations of macitentan and ACT-132577 in PAH patients at 75 mg per day dose are expected to be around 5 μM and 14 μM, respectively, based on the PK Sub-study and assuming dose linearity. […] It is not likely that these unbound concentrations of macitentan and ACT-132577 result in any inhibition of BCRP in the liver or kidney or induction of CYP3A4 enzyme in the liver.

[3] = cited from earlier work
ET receptors = conditions: cited from earlier work
[4] = continuous IV infusion, patients with PVR greater than 1200 dynes·s·cm^−5 before PEA surgery; cited from earlier work
BCRP transporters = target: T2, BCRP transporters (Homo sapiens, UniProt Q9UNQ0); test: Effect of macitentan on rosuvastatin pharmacokinetics; format: in vivo; conditions: macitentan 10 mg per day o.d.
T2 construct: BCRP is an efflux pump located in the gut, liver canalicular membrane, and kidney; from tissue; host or cells: in vivo: gut, liver canalicular membrane, kidney
T2 sequence (Q9UNQ0 1-655): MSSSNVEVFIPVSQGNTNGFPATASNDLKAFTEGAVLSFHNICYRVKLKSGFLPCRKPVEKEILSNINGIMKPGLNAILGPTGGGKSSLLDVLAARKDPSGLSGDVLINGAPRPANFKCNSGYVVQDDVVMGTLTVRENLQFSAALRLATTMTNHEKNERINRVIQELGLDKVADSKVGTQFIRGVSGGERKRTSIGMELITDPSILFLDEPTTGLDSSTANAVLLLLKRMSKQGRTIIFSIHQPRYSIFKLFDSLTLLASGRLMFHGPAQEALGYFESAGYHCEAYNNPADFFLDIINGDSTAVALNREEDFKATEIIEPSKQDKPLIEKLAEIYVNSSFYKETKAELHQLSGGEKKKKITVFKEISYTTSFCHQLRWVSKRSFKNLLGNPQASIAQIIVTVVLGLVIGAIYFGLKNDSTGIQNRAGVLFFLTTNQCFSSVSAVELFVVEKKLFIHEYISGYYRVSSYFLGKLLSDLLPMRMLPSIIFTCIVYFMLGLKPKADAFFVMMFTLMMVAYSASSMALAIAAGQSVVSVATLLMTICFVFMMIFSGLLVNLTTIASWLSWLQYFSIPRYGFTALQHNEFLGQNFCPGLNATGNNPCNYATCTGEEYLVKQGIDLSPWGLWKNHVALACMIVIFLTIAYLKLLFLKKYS
Source text: BCRP is an efflux pump located in the gut, liver canalicular membrane, and kidney, and is exposed to intracellular drug concentrations in the liver and the kidney.

[5] = Effect of macitentan on decrease in hemoglobin concentration, pooled Phase I studies, Emax fit; format: in vivo, human; conditions: healthy volunteers
Source text: Hemoglobin measurements were pooled from 3 Phase I clinical studies in healthy volunteers: • Study AC-055-102: Investigation of the PK, PD, safety and tolerability of macitentan in male subjects (the study protocol is described in the following publication: Sidharta et al., Safety, tolerability, pharmacokinetics, and pharmacodynamics of macitentan, an endothelin receptor antagonist, in an ascending multiple-dose study in healthy subjects. J. Clin. Pharmacol. (2013), 53(11), 1131-1138) • Study AC-055-116: Investigation of the PK, PD, safety and tolerability of macitentan in male Japanese subjects (the study protocol is described in the following publication: Yokoyama et al., Tolerability, Safety, Pharmacokinetics, and Pharmacodynamics of Macitentan, a New Endothelin Receptor Antagonist, in Healthy Japanese Male Subjects. Rinsho yakuri/Japanese Journal of Clinical Pharmacology and Therapeutics (2016), 47, 143-150) • Study AC-055-117: Investigation of the PK, PD, safety and tolerability of macitentan in male Korean subjects (the study protocol is described in the following publication: Ahn et al., Pharmacokinetic-pharmacodynamic relationships of macitentan, a new endothelin receptor antagonist, after multiple dosing in healthy Korean subjects, Am. […]
Hemoglobin concentrations measured in the morning of Day 11 of macitentan treatment and at baseline on Day −1 were used in the analysis. […]

[6] = rats, cited from earlier work
plasma ET-1 = conditions: healthy human subjects; 1, 3, 10, 30 mg; cited from earlier work

SMILES	drug-drug interaction [1]	EC50 (human PXR) [µM]	CYP3A4 mRNA and enzyme activity (CYP3A4)	predicted peak plasma concentration [2]	expected free plasma concentration [2] [µM]	time to peak plasma concentration ([3]; after the first dose of macitentan)	half-life ([3]; in humans)	plasma concentrations relative to macitentan ([3]; in vivo)	affinity for the ET receptors relative to parent compound (ET receptors)	effect on preoperative cardiac output and PVR [4]	effect on the pharmacokinetics of 1 mg rosuvastatin (BCRP transporters)	dose at which the effect on hemoglobin decrease plateaus [5] [mg]	maximum effect on hemoglobin decrease (Emax) ([5]; Day 11 vs baseline Day −1)	absorption into the plasma ([3]; in humans)	time to steady state ([3]; in humans)	dose of maximal or near-maximal effect ([6]; EMA Assessment Report) [mg/kg]	maximal effective dose [6] [mg/kg]	plasma ET-1 concentrations at steady-state (plasma ET-1)
NS(=O)(=O)Nc1ncnc(OCCOc2ncc(Br)cn2)c1-c1ccc(Br)cc1 [ACT-132577]	No Drug-Drug Interaction has been observed	7.2 to 8.7	concentration-dependent increases	~14 µM	0.07	about 30 hours	approximately 48 hours	higher plasma concentrations than macitentan	lower affinity									
CCCCC[C@H](O)/C=C/[C@@H]1[C@H]2C/C(=C/CCCC(=O)O)O[C@H]2C[C@H]1O [epoprostenol]										may significantly increase preoperative cardiac output and reduces PVR								
CCCNS(=O)(=O)Nc1ncnc(OCCOc2ncc(Br)cn2)c1-c1ccc(Br)cc1 [macitentan, propylsulfamic acid [5-(4-bromo-phenyl)-6-[2-(5-bromo-pyrimidin-2-yloxy)-ethoxy]-pyrimidin-4-yl]-amide]	No Drug-Drug Interaction has been observed	1.1 to 1.2	concentration-dependent increases	around 5 μM	0.02		about 16 hours				has not shown any effect	10	around 1.23 g/dL	absorbed slowly	by the third day of administration	10	30	no further increase beyond the 10 mg oral dose

Source: patent publication US11612600B2, “Pharmaceutical composition comprising macitentan for the treatment of chronic thromboembolic pulmonary hypertension” (ACTELION PHARMACEUTICALS LTD, priority 2019, dated 2023)
